Test results: patent US9585877B2, “Methods of maintaining, treating or improving cognitive function” (Forum Pharmaceuticals, Inc., priority 2012, dated 2017)

Tests used:
Format in all cases: in vivo, human
[1] = system: subjects with mild-to-moderate Alzheimer's disease; assay: Clinical study, Mini-Mental State Examination (MMSE)
Protocol: (§1) A double-blind study of 3 doses of the Test Composition or placebo in subjects with mild-to-moderate Alzheimer's disease, with or without receiving a concomitant AChEI for 24 weeks (168 days) after a 7 day placebo run-in period.
(§2) Total number of subjects in the safety population was 409 subjects that were dosed once-daily with a dosing-capsule for a period of 168 days. The subjects dosed, and the particular dosing, included: 104 subjects dosed with Placebo capsule; and 305 subjects dosed with Test Compound (104 subjects with 0.3 mg capsules; 101 subjects with 1 mg capsules; and 100 subjects with 2 mg capsules).
The population included generally healthy male or female subjects, aged 50 to ≦85 years, with mild-to-moderate Alzheimer's disease, consistent with criteria defined by a Work Group of the National Institute of Neurological and Communicative Disorders and Stroke—Alzheimer's Disease and Related Disorders Association, of mild to moderate severity, with a Mini-Mental State Examination score (MMSE) 14 and ≦24, and a Clinical Dementia Rating Scale Sum of the Boxes (CDR-SB) score of 2. […] Subjects were required to be either receiving a stable dose of an AChEI (donepezil or rivastigmine) for at least 3 months before screening or not presently being treated with an AChEI or mementine for at least 30 days.
(§3) Subjects with mild to moderate Alzheimer's disease receiving stable treatment with an AChEI (donepezil or rivastigmine: ‘add-on’ subjects) or not receiving an AChEI (de novo subjects′) received 0.3, 1, or 2 mg doses of Test Composition or placebo for up to 24 weeks (168 days) of double-blind treatment, after a 7-day single-blind, placebo run-in period to assess study drug compliance. A follow-up telephone contact was conducted approximately 15 days after the last dose of study drug for questions regarding safety.
Mini-Mental State Examination (MMSE)
The MMSE test employed herein is based on the procedure developed by Folstein, M., Folstein, S., McHugh, P. Mini-Mental State: “A Practical Method for Grading the Cognitive State of Patients for the Clinician”; Journal of Psychiatric Research 1975, 12:189-98.
The MMSE test assesses and/or evaluates memory, orientation, recognition, attention, concentration, language, and praxis. The MMSE total score ranges from 0 to 30 points. Lower scores indicate a lower level of functioning. An increase from baseline indicates improvement.

[2] = system: subjects with mild-to-moderate Alzheimer's disease; assay: Clinical study, Controlled Oral Word Association Test (COWAT); details: 2 mg dose versus Placebo
Protocol: as §1, §2
The population included generally healthy male or female subjects, aged 50 to ≦85 years, with mild-to-moderate Alzheimer's disease, consistent with criteria defined by a Work Group of the National Institute of Neurological and Communicative Disorders and Stroke—Alzheimer's Disease and Related Disorders Association, of mild to moderate severity, with a Mini-Mental State Examination score (MMSE) 14 and ≦24, and a Clinical Dementia Rating Scale Sum of the Boxes (CDR-SB) score of 2. […]
The COWAT test includes (1) asking the subject to name words beginning with a specific letter (e.g., F, A, S), (2) each of 3 trials is timed for 60 seconds, and (3) the score is calculated by the number of new words beginning with the assigned letter.

[3] = system: subjects with mild-to-moderate Alzheimer's disease; assay: Clinical study, Executive Function composite score; details: for Executive function composite score Effect Size: over a 23 week period
Protocol: as §1, §3
These analyses were prespecified in the analytical plan (ITT population), and included the following: Cognition composite score (ADAS-cog Word Recall, Word Recognition, & Orientation, and COWAT and CFT), Memory composite score (ADAS-cog Word Recall, Word Recognition, and Orientation), and Executive Function composite score (COWAT and CFT).
Composite Scores—Three composite scores were calculated: (1) Composite Cognition Score (ADAS-cog Word Recall, Word Recognition, and Orientation, COWAT and CFT); (2) Memory Composite Score (ADAS-cog Word Recall, Word Recognition, and Orientation); and (3) Executive Function Composite Score (COWAT and CFT).
The composite score is only computed when all test scores are available.

[4] = system: subjects with mild-to-moderate Alzheimer's disease; assay: Responder analysis: PK/PD effects (ADAS-Cog)
From the text: The response by plasma level of Test Compound was also investigated. A ‘responder’ definition of >3 pt ADAS-Cog effect was utilized. The plasma levels of responders and nonresponders informed a logistic regression model. […] FIG. 12 illustrates the mean plasma concentration levels (including the 95% confidence levels and the measured extremes) of Test Compound, and FIG. 13 illustrates the Exposure Response analysis, using plasma concentration levels of Test Compound and ADAS-Cog-13 changes. The relationship between dose and likelihood of clinical response, as defined by either an ADAS-Cog effect ≧3 points, or ≧2 points, is summarized in Table 19: […]

Cl.O.O=C(N[C@H]1CN2CCC1CC2)c1cc2cccc(Cl)c2s1 [Test Compound, (R)-7-chloro-N-(quinuclidin-3-yl)benzo[b]thiophene-2-carboxamide, hydrochloride, monohydrate]
MMSE (Baseline was assigned the value of zero @ Week 0) ([1]; 0.3 mg daily dose, Week 4): −0.0411
MMSE (Baseline was assigned the value of zero @ Week 0) ([1]; 0.3 mg daily dose, Week 12): 0.185
MMSE (Baseline was assigned the value of zero @ Week 0) ([1]; 0.3 mg daily dose, Week 18): −0.3601
MMSE (Baseline was assigned the value of zero @ Week 0) ([1]; 0.3 mg daily dose, Week 23): −0.3112
MMSE (Baseline was assigned the value of zero @ Week 0) ([1]; 1 mg daily dose, Week 4): 0.9142
MMSE (Baseline was assigned the value of zero @ Week 0) ([1]; 1 mg daily dose, Week 12): 0.7836
MMSE (Baseline was assigned the value of zero @ Week 0) ([1]; 1 mg daily dose, Week 18): 0.7253
MMSE (Baseline was assigned the value of zero @ Week 0) ([1]; 1 mg daily dose, Week 23): 0.4416
MMSE (Baseline was assigned the value of zero @ Week 0) ([1]; 2 mg daily dose, Week 4): 0.5262
MMSE (Baseline was assigned the value of zero @ Week 0) ([1]; 2 mg daily dose, Week 12): 0.3526
MMSE (Baseline was assigned the value of zero @ Week 0) ([1]; 2 mg daily dose, Week 18): 0.723
MMSE (Baseline was assigned the value of zero @ Week 0) ([1]; 2 mg daily dose, Week 23): 0.5139
MMSE Effect Size ([1]; 2 mg dose versus Placebo): 0.21
COWAT Effect Size [2]: 0.35
Executive Function Composite Score (Baseline was assigned the value of zero @ Week 0) ([3]; 0.3 mg daily dose, Week 4): 0.0074
Executive Function Composite Score (Baseline was assigned the value of zero @ Week 0) ([3]; 0.3 mg daily dose, Week 12): 0.0391
Executive Function Composite Score (Baseline was assigned the value of zero @ Week 0) ([3]; 0.3 mg daily dose, Week 18): −0.0224
Executive Function Composite Score (Baseline was assigned the value of zero @ Week 0) ([3]; 0.3 mg daily dose, Week 23): −0.0153
Executive Function Composite Score (Baseline was assigned the value of zero @ Week 0) ([3]; 1 mg daily dose, Week 4): 0.0202
Executive Function Composite Score (Baseline was assigned the value of zero @ Week 0) ([3]; 1 mg daily dose, Week 12): 0.0609
Executive Function Composite Score (Baseline was assigned the value of zero @ Week 0) ([3]; 1 mg daily dose, Week 18): 0.0418
Executive Function Composite Score (Baseline was assigned the value of zero @ Week 0) ([3]; 1 mg daily dose, Week 23): 0.0476
Executive function composite score Effect Size ([3]; 1 mg versus placebo): 0.32
Executive Function Composite Score (Baseline was assigned the value of zero @ Week 0) ([3]; 2 mg daily dose, Week 4): −0.0311
Executive Function Composite Score (Baseline was assigned the value of zero @ Week 0) ([3]; 2 mg daily dose, Week 12): −0.0452
Executive Function Composite Score (Baseline was assigned the value of zero @ Week 0) ([3]; 2 mg daily dose, Week 18): 0.0188
Executive Function Composite Score (Baseline was assigned the value of zero @ Week 0) ([3]; 2 mg daily dose, Week 23): 0.0244
Executive function composite score Effect Size ([3]; 2 mg versus placebo): 0.27
Responders, ADAS-Cog (≧2 points) ([4]; 0.3 mg): 31%
Responders, ADAS-Cog (≧3 points) ([4]; 0.3 mg): 25%
Responders, ADAS-Cog (≧2 points) ([4]; 1 mg): 33%
Responders, ADAS-Cog (≧3 points) ([4]; 1 mg): 28%
Responders, ADAS-Cog (≧2 points) ([4]; 2 mg): 51%
Responders, ADAS-Cog (≧3 points) ([4]; 2 mg): 45%
Relationship of plasma level and likelihood of being a responder ([4]; responder >3 pt ADAS-Cog effect, logistic regression model, p=0.003): significant plasma level/exposure response relationship exists
